Patent publication US6750348B1, “Chemokine receptor binding heterocyclic compounds” (AnorMED, Inc., priority 1999, dated 2004)

system: HIV-1 NL4.3 or IIIB; assay: Inhibition of HIV-1 (NL4.3 or IIIB) replication in MT-4 cells (MTT); format: cell-based; conditions: Human immunodeficiency virus 1, IIIB, MT4, read-out: EC50, inhibition of HIV-1 NL4.3 or IIIB replication
Experimental: Compounds were tested for their ability to inhibit HIV-1 replication in MT-4 cells or PBMC's (peripheral blood mononucleocytes) using published procedures (for example, see: Labrosse et al. J. Virol. 1998, 6381-6388; Simmons et al. J. Virol. 1998, 8453-8457; Donzella et al. Nature Medicine 1998, 72-77; Schols et al. J. Exp. Med. 1997, 1383-1388; De Clercq et al. Antiviral Res. 1997, 147-156; and Bridger et al. U.S. patent application Ser. No. 09/111,895). In addition to the above references, experimental methods for performing anti-viral assays can also be found in: Bridger et al. J. Med. Chem. 1995, 38, 366-378; Bridger et al. J. Med. Chem. 1996, 39, 109-119; Bridger et al. U.S. Pat. No. 5,698,546; Bridger et al. U.S. Pat. No. 5,583,131; Bridger et al. U.S. Pat. No. 5,817,807; De Clercq et al. Antimicrob. Agents and Chemother. 1994, 38, 668-674.
1. The HIV-1 strains NL4.3 and IIIB are T-tropic strains that exclusively use CXCR4 as the co-receptor for entry into cells. MT-4 Cells express CXCR4 but not CCR5.
Inhibition of HIV-1 NL4.3 (or IIIB) replication assays were performed as previously described (Bridger et al. J. Med. Chem. 1999, 42, 3971-3981; De Clercq et al. Proc. Natl. Acad. Sci, 1992, 89, 5286-5290; De Clercq et al. Antimicrob. Agents Chemother. 1994, 38, 668-674; Bridger et al. J. Med. Chem. 1995, 38, 366-378). Anti-HIV activity and cytotoxicity measurements were carried out in parallel. They were based on the viability of MT-4 cells that had been infected with HIV in the presence of various concentrations of the test compounds. After the MT-4 cells were allowed to proliferate for 5 days, the number of viable cells was quantified by a tetrazolium-based calorimetric 3-(4,5-dimethylthiazol-2-yl)-2,5-diphenyltetrazolium bromide (MTT) procedure in 96-well microtrays. In all of these assays, viral input (viral multiplicity of infection, MOI) was 0.01, or 100 times the 50% cell culture infective dose (CCID50). The EC50 was defined as the concentration required to protect 50% of the virus-infected cells against viral cytopathicity.

Structure (SMILES) | EC50 [µg/mL]
c1ccc(CNCc2ccc(CNC3CCCCc4cccnc43)cc2)nc1 (stereo not shown) [Example 1, N-(2-pyridinylmethyl)-N′-(6,7,8,9-tetrahydro-5H-cyclohepta[b]pyridin-9-yl)-1,4-benzenedimethanamine] | < 20
c1ccc(CNCc2ccc(CNC3CCCc4cccnc43)cc2)nc1 (stereo not shown) [Example 2, N-(2-pyridinylmethyl)-N′-(5,6,7,8-tetrahydro-8-quinolinyl)-1,4-benzenedimethanamine] | < 20
c1ccc(CNCc2ccc(CNC3CCc4cccnc43)cc2)nc1 (stereo not shown) [Example 3, N-(2-pyridinylmethyl)-N′-(6,7-dihydro-5H-cyclopenta[b]pyridin-7-yl)-1,4-benzenedimethanamine] | < 20
c1ccc(CNCc2ccc(CNC3CCCc4ccccc43)cc2)nc1 (stereo not shown) [Example 4, N-(2-pyridinylmethyl)-N′-(1,2,3,4-tetrahydro-1-naphthalenyl)-1,4-benzenedimethanamine] | < 20
O=C(NCCN(Cc1ccc(CNCc2ccccn2)cc1)C1CCCc2cccnc21)c1ccc2ccccc2c1 (stereo not shown) [Example 19, N-(2-pyridinylmethyl)-N′-(2-(2-naphthoyl)aminoethyl)-N′-(5,6,7,8-tetrahydro-8-quinolinyl)-1,4-benzenedimethanamine] | < 20
c1ccc(CNCc2ccc(CN(Cc3nc4ccccc4[nH]3)C3CCCc4cccnc43)cc2)nc1 (stereo not shown) [Example 61, N-(2-pyridinylmethyl)-N′-(1H-benzimidazol-2-ylmethyl)-N′-(5,6,7,8-tetrahydro-8-quinolinyl)-1,4-benzenedimethanamine] | < 20
c1ccc(CCN(Cc2ccc(CNCc3ccccn3)cc2)C2CCCc3cccnc32)cc1 (stereo not shown) [Example 69, N-(2-pyridinylmethyl)-N′-(2-phenylethyl)-N′-(5,6,7,8-tetrahydro-8-quinolinyl)-1,4-benzenedimethanamine] | < 20
c1ccc(CCCN(Cc2ccc(CNCc3ccccn3)cc2)C2CCCc3cccnc32)cc1 (stereo not shown) [Example 70, N-(2-pyridinylmethyl)-N′-(3-phenylpropyl)-N′-(5,6,7,8-tetrahydro-8-quinolinyl)-1,4-benzenedimethanamine] | < 20

same assay, conditions: Human immunodeficiency virus 1, IIIB, MT4, read-out: EC50, inhibition of HIV-1 NLA.3 or IIIB replication

Structure (SMILES) | EC50 [µM]
COc1cccc(CN(Cc2ccc(CNCc3ccccn3)cc2)C2CCCc3cccnc32)c1OC (stereo not shown) [Example 95, N-[(2,3-dimethoxyphenyl)methyl]-N′-(2-pyridinylmethyl)-N-(5,6,7,8-tetrahydro-8-quinolinyl)-1,4-benzenedimethanamine] | < 20
N#Cc1ccc(CN(Cc2ccc(CNCc3ccccn3)cc2)C2CCCc3cccnc32)cc1 (stereo not shown) [Example 101, N-[(4-cyanophenyl)methyl]-N′-(2-pyridinylmethyl)-N-(5,6,7,8-tetrahydro-8-quinolinyl)-1,4-benzenedimethanamine] | < 20
CC(=O)Nc1ccc(CN(Cc2ccc(CNCc3ccccn3)cc2)C2CCCc3cccnc32)cc1 (stereo not shown) [Example 102, N-[(4-acetamidophenyl)methyl]-N′-(2-pyridinylmethyl)-N-(5,6,7,8-tetrahydro-8-quinolinyl)-1,4-benzenedimethanamine] | < 20
c1ccc(Oc2ccc(CN(Cc3ccc(CNCc4ccccn4)cc3)C3CCCCc4cccnc43)cc2)cc1 (stereo not shown) [Example 103, N-[(4-phenoxyphenyl)methyl]-N′-(2-pyridinylmethyl)-N-(6,7,8,9-tetrahydro-5H-cyclohepta[b]pyridin-9-yl)-1,4-benzenedimethanamine] | < 20
c1ccc(COc2ccc(CN(Cc3ccc(CNCc4ccccn4)cc3)C3CCCCc4cccnc43)cc2)cc1 (stereo not shown) [Example 105, N-[(4-benzyloxyphenyl)methyl]-N′-(2-pyridinylmethyl)-N-(6,7,8,9-tetrahydro-5H-cyclohepta[b]pyridin-9-yl)-1,4-benzenedimethanamine] | < 20
c1ccc(CNCc2ccc(CN(Cc3ccc4c(c3)OCO4)C3CCCc4cccnc43)cc2)nc1 (stereo not shown) [Example 112, N-[(3,4-methylenedioxyphenyl)methyl]-N′-(2-pyridinylmethyl)-N-(5,6,7,8-tetrahydro-8-quinolinyl)-1,4-benzenedimethanamine] | < 20
c1ccc(CNCc2ccc(CN(Cc3cccnc3)C3CCCCc4cccnc43)cc2)nc1 (stereo not shown) [Example 113, N-(3-pyridinylmethyl)-N′-(2-pyridinylmethyl)-N-(6,7,8,9-tetrahydro-5H-cyclohepta[b]pyridin-9-yl)-1,4-benzenedimethanamine] | < 20
CCCOc1ccc(CN(Cc2ccc(CNCc3ccccn3)cc2)C2CCCCc3cccnc32)cc1 (stereo not shown) [Example 116, N-[(4-propoxyphenyl)methyl]-N′-(2-pyridinylmethyl)-N-(6,7,8,9-tetrahydro-5H-cyclohepta[b]pyridin-9-yl)-1,4-benzenedimethanamine] | < 20
COc1cc(CN(Cc2ccc(CNCc3ccccn3)cc2)C2CCCCc3cccnc32)cc2c1OCO2 (stereo not shown) [Example 119, N-[(3-methoxy-4,5-methylenedioxyphenyl)methyl]-N′-(2-pyridinylmethyl)-N-(6,7,8,9-tetrahydro-5H-cyclohepta[b]pyridin-9-yl)-1,4-benzenedimethanamine] | < 20
N#Cc1cccc(CN(Cc2ccc(CNCc3ccccn3)cc2)C2CCCc3cccnc32)c1 (stereo not shown) [Example 121, N-[(3-cyanophenyl)methyl]-N′-(2-pyridinylmethyl)-N-(5,6,7,8-tetrahydro-8-quinolinyl)-1,4-benzenedimethanamine] | < 20
CCc1ccc(CN(Cc2ccc(CNCc3ccccn3)cc2)C2CCCc3cccnc32)s1 (stereo not shown) [Example 123, N-(5-ethylthiophene-2-ylmethyl)-N′-(2-pyridinylmethyl)-N-(5,6,7,8-tetrahydro-8-quinolinyl)-1,4-benzenedimethanamine] | < 20
Fc1cccc(F)c1CN(Cc1ccc(CNCc2ccccn2)cc1)C1CCCCc2cccnc21 (stereo not shown) [Example 124, N-[(2,6-difluorophenyl)methyl]-N′-(2-pyridinylmethyl)-N-(6,7,8,9-tetrahydro-5H-cyclohepta[b]pyridin-9-yl)-1,4-benzenedimethanamine] | < 20
Fc1cccc(F)c1CN(Cc1ccc(CNCc2ccccn2)cc1)C1CCCc2cccnc21 (stereo not shown) [Example 125, N-[(2,6-difluorophenyl)methyl]-N′-(2-pyridinylmethyl)-N-(5,6,7,8-tetrahydro-8-quinolinyl)-1,4-benzenedimethanamine] | < 20
FC(F)Oc1ccccc1CN(Cc1ccc(CNCc2ccccn2)cc1)C1CCCCc2cccnc21 (stereo not shown) [Example 126, N-[(2-difluoromethoxyphenyl)methyl]-N′-(2-pyridinylmethyl)-N-(6,7,8,9-tetrahydro-5H-cyclohepta[b]pyridin-9-yl)-1,4-benzenedimethanamine] | < 20
Fc1ccc(CN(Cc2ccc(CNCc3ccccn3)cc2)C2CCCc3cccnc32)c(F)c1 (stereo not shown) [Example 137, N-[(2,4-difluorophenyl)methyl]-N′-(2-pyridinylmethyl)-N-(5,6,7,8-tetrahydro-8-quinolinyl)-1,4-benzenedimethanamine] | < 20
Cn1cccc1CN(Cc1ccc(CNCc2ccccn2)cc1)C1CCCc2cccnc21 (stereo not shown) [Example 138, N-(1-methylpyrrol-2-ylmethyl)-N′-(2-pyridinylmethyl)-N-(5,6,7,8-tetrahydro-8-quinolinyl)-1,4-benzenedimethanamine] | < 20
Oc1ccccc1CN(Cc1ccc(CNCc2ccccn2)cc1)C1CCCc2cccnc21 (stereo not shown) [Example 139, N-[(2-hydroxyphenyl)methyl]-N′-(2-pyridinylmethyl)-N-(5,6,7,8-tetrahydro-8-quinolinyl)-1,4-benzenedimethanamine] | < 20
